Measured values from ChEMBL document CHEMBL1149035, “Verongamine, a novel bromotyrosine-derived histamine H3-antagonist from the marine sponge Verongula gigantea” (J Nat Prod, 1994).
Active and inactive are the calls of the source. The calls are words filed in the database; no cut-off is given here.

Tests used:
[1] = target: Histamine H3 receptor (Cavia porcellus) (UniProt Q9JI35); assay: Antagonist activity at guinea pig histamine H3 receptor assessed as blockade of (R)-alpha-methyl histamine-induced inhibition of EFS-stimulated guinea pig ileum contraction at 1 ug/mL; type: functional, tissue-based
[2] = target: Histamine H3 receptor (Cavia porcellus) (UniProt Q9JI35); assay: Antagonist activity at guinea pig histamine H3 receptor assessed as blockade of clonidine-induced inhibition of EFS-stimulated guinea pig ileum contraction at 1 ug/mL; type: functional, tissue-based
[3] = target: Histamine H3 receptor (Cavia porcellus, UniProt Q9JI35); assay: Binding affinity to histamine H3 receptor in guinea pig brain membrane; type: cell membranes
Sequence of Histamine H3 receptor (Q9JI35 whole entry): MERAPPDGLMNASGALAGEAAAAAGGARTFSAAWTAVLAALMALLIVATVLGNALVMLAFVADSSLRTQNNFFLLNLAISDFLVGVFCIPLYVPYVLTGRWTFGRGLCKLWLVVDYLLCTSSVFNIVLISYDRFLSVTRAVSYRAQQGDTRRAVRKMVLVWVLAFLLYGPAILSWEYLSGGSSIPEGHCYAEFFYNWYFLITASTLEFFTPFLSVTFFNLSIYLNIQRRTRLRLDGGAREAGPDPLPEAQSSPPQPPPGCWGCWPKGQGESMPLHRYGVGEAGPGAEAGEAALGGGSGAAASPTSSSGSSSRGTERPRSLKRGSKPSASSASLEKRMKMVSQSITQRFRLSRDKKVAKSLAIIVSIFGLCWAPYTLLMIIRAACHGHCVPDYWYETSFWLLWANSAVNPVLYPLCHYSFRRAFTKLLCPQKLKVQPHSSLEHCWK

Sequence of Histamine H3 receptor (Cavia porcellus) (Q9JI35 whole entry): as above

| SMILES | Activity [1] | Activity [2] | IC50 [3] [nM] |
| --- | --- | --- | --- |
| COc1ccc(C/C(=N\O)C(=O)NCCc2c[nH]cn2)cc1Br [VERONGAMINE] | Active | inactive | 500 |
| COC1=C(Br)C(O)C2(C=C1Br)CC(C(=O)NCCc1c[nH]cn1)=NO2 (centres undefined) | inactive |  |  |
